Test results from US20200237703A1, “OLEACEIN FOR USE IN ATHEROSCLEROSIS PREVENTION” (WARSZAWSKI UNIWERSYTET MEDYCZNY, priority 2017, published 2020).

Legend:
[1] = test system: macrophage cells isolated from human peripheral blood; assay: Cytotoxicity on macrophage cells; assay type: cell-based; details: oleacein 20 μmol/L and 50 μmol/L, 72 hours
Experimental: (§1) All experiments were conducted with the use of macrophage cells isolated from human peripheral blood. […] Expression of scavenger receptors was determined using flow cytometer. Visualization of lipid deposits in macrophages (foam cells) was carried out with the use of well-known Red Oil O staining method.

macrophage foam cells = assay: Formation of foam cells / lipid deposits in macrophages, Red Oil O staining; assay type: cell-based, human; details: oleacein 50 μmol/L + oxLDL 50 μg/mL
Experimental: as §1
The images were acquired using fluorescence microscope Nikon TS100F. D—control, the cells without stimulation, E—the cells incubated with oleacein (50 μmol/L), F—the cells stimulated with oxLDL (50 μg/mI)—stimulated control, G—the cells incubated with oleacein (50 μmol/L) and oxLDL (50 μg/mL).

For C/C=C(/C=O)[C@@H](CC=O)CC(=O)OCCc1ccc(O)c(O)c1 [oleacein], the “cytotoxicity on macrophage cells” value [1] was “no cytotoxicity” and the “effect on the formation of foam cells and lipid deposits” value (macrophage foam cells) was “inhibitory effect”.
